# pIC50: −log10 of the molar value.
# Target: mouse NPY Y5 receptor (Mus musculus (Mouse), UniProt O70342)
# Experiment: Affinity for NPY Y5 receptor (Test Example 1-1), 125I peptide YY binding
# Conditions: inhibition of 125I peptide YY binding to membranes of CHO cells expressing mouse NPY Y5 receptor
# Text: cDNA sequence encoding mouse NPY Y5 receptor (Biochem. Biophys. Acta 1328: 83-89, 1997) was cloned in the expression vector (pME18S, Takebe et al. Mol. Cell. Biol. 8, 466-472). The obtained expression vector was transfected into CHO cells as a host according to the instruction manual using Lipofectamine reagent (Trademark, Gibco BRL Co., Ltd.). The cells that stably express NPY Y5 receptor were obtained.
# The membrane samples prepared from the CHO cells expressing NPY Y5 receptor, the compound of the invention and 30,000 cpm ^125I peptide YY (60 pM of final concentration: Amersham) were incubated in the assay buffer (20 mM HEPES-Hanks buffer containing 0.1% bovine serum albumin, pH 7.4) at 25° C. for 2 hours. The membrane samples were then filtered from the mixture through a glassfilter (GF/C) presoaked with 1% polyethyleneimine. After washing with 50 mM Tris-HCl buffer (pH 7.4), radioactivity retained on the filters was determined using gamma counter. Non-specific binding was determined in the presence of 200 nM of peptide YY and the 50% inhibitory concentration (IC50 value) of the test compound for specific peptide YY binding was calculated (Inui, A. et al. Endocrinology 131, 2090-2096 (1992)).
# Chain of mouse NPY Y5 receptor (O70342 whole entry): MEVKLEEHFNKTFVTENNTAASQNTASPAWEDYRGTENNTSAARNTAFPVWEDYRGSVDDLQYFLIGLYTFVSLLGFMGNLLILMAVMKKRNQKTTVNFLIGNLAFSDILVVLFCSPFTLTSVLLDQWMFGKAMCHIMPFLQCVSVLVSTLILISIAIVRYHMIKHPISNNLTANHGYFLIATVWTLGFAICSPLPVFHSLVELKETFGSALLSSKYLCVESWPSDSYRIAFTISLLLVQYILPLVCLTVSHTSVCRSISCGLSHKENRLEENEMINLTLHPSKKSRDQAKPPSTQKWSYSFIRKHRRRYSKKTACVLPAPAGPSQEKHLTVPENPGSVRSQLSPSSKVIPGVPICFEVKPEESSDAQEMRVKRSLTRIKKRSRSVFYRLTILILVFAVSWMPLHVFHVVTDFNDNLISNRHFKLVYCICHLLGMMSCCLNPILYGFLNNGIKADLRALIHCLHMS
row,pIC50,Compound
1,8.54,N#Cc1ccccc1C(=O)N[C@H]1CC[C@@H](C(=O)Nc2ccn(-c3ccccc3F)n2)CC1 [Ia-24]
2,8.48,CC(C)n1c(=O)oc2cc(NC(=O)[C@H]3CC[C@@H](NC(=O)c4ccon4)CC3)ccc21 [Ia-32]
3,8.74,O=C(N[C@H]1CC[C@@H](c2nc(-c3cccc(C(F)(F)F)c3)c[nH]2)CC1)c1ccon1 [Ia-43]
4,8.54,O=C(Nc1ccn(-c2ccccc2F)n1)[C@H]1CC[C@@H](Nc2cccc(F)n2)CC1 [Ib-1]
5,8.82,CC(C)n1c(=O)oc2cc(NC(=O)[C@H]3CC[C@@H](Nc4cccc(F)n4)CC3)ccc21 [Ib-4]
6,8.96,C[C@@H]1CN(c2ccc(NC(=O)[C@H]3CC[C@@H](Oc4cc(Cl)ccc4C#N)CC3)cc2)C[C@H](C)O1 [Ic-12]
7,9.17,CC(C)n1c(=O)oc2cc(NC(=O)[C@H]3CC[C@@H](Oc4cc(C(F)(F)F)ccc4C#N)CC3)ccc21 [Ic-14]
8,9.24,O=C(Nc1ccn(-c2ccccc2F)n1)[C@H]1CC[C@@H](N2c3ccccc3OS2(=O)=O)CC1 [Id-8]

# Continued, compound first:
row,Compound,pIC50
1,O=C(N[C@H]1CC[C@@H](C(=O)Nc2ccn(-c3ccccc3F)n2)CC1)c1cccc(F)n1 [Ia-2],8.80
2,O=C(N[C@H]1CC[C@@H](C(=O)Nc2ccn(-c3ccccc3F)n2)CC1)c1cccc(Cl)n1 [Ia-4],8.42
3,O=C(N[C@H]1CC[C@@H](C(=O)Nc2cccc(-c3ccccc3F)c2)CC1)c1ccccc1 [Ia-14],8.39
4,CC(C)n1c(=O)oc2cc(NC(=O)[C@H]3CC[C@@H](NC(=O)c4ccccc4)CC3)ccc21 [Ia-15],8.35
5,O=C(N[C@H]1CC[C@@H](C(=O)Nc2cccc(-c3ccccc3F)c2)CC1)c1ccon1 [Ia-28],8.39
6,O=C(N[C@H]1CC[C@@H](C(=O)Nc2ccc(-c3ccccc3F)cc2)CC1)c1ccon1 [Ia-30],9.15
7,O=C(N[C@H]1CC[C@@H](C(=O)Nc2ccc(-c3ccccc3)cc2)CC1)c1ccon1 [Ia-35],9.19
8,O=C(N[C@H]1CC[C@@H](c2nc(-c3ccc(Cl)c(Cl)c3)c[nH]2)CC1)c1ccon1 [Ia-40],9.59
9,O=C(N[C@H]1CC[C@@H](c2nc(-c3cccc(Cl)c3)c[nH]2)CC1)c1ccon1 [Ia-42],8.52
10,C[C@@H]1CN(c2ccc(NC(=O)[C@H]3CC[C@@H](Oc4cc(Cl)ccn4)CC3)cc2)C[C@H](C)O1 [Ic-5],8.82
11,N#Cc1ccccc1O[C@H]1CC[C@@H](C(=O)Nc2ccc(OC(F)F)cc2)CC1 [Ic-8],8.64
12,C[C@@H]1CN(c2ccc(NC(=O)[C@H]3CC[C@@H](Oc4cc(C(F)(F)F)ccc4C#N)CC3)cc2)C[C@H](C)O1 [Ic-11],8.74
13,CC(C)n1c(=O)oc2cc(NC(=O)[C@H]3CC[C@@H](Oc4cc(Cl)ccc4C#N)CC3)ccc21 [Ic-13],9.25
14,CC(C)n1c(=O)oc2cc(NC(=O)[C@H]3CC[C@@H](Oc4cc(C(F)(F)F)ccn4)CC3)ccc21 [Ic-16],9.39
15,O=C(Nc1ccn(-c2ccccc2F)n1)[C@H]1CC[C@@H](Oc2cc(Cl)ccn2)CC1 [Ic-17],9.16
